Counter-ions that a name gives are not always drawn.
Legend:
diabetic (db/db) mice = experiment: Mouse diabetic wound model; format: in vivo; settings: compared with ND-322; in words
Text: The excisional mouse diabetic model validated by Sullivan et al. was used (Sullivan et al., Plast. Reconstr. Surg. (2004) 113, 953-960). The procedure for inflicting the wounds (single 8 mm wound on the dorsal region) was the same as described previously (Gooyit et al., ACS Chem. Biol. (2014) 9, 505-510). Wounds were photographed and covered with a sterile 3M Tegaderm™ transparent dressing (Butler Schein Animal Health, Inc.).
Female diabetic db/db (BKS.Cg-Dock7m+/+Leprdb/J, 8-weeks old, 38±3 g, n=24) were used for this study. Wounds were inflicted as described. Treatment with the MMP-2 inhibitor (50 μL of 5.0 mg/mL in 80% propylene glycol/20% DMSO, equivalent to 0.25 mg per wound) or vehicle (50 μL of 80% propylene glycol/20% DMSO) was started one day after wound infliction and continued once a day for 14 days. Digital photographs of wounds were taken on days 0, 7, 10, and 14 while the animals were under isoflurane anesthesia. On day 14, all mice were sacrificed. The wounds were excised, embedded in optimal cutting temperature (OCT) compound, and cryosectioned for histological evaluation.
Female diabetic db/db (BKS.Cg-Dock7m+/+Leprdb/J, 8-weeks old, 38±3 g, n=24) were used for this study. Wounds were inflicted and the following day the wounds were treated topically with MMP-8 (50 μL of 20 μg/mL MMP-8 in reaction buffer) or vehicle (50 μL reaction buffer) once a day for 14 days. The reaction buffer consisted of 50 mM Tris (pH 7.5), 10 mM CaCl2, 150 mM NaCl, and 0.05% (w/v) Brij-35. Digital photographs of the wounds were taken on days 0, 7, 10, and 14 while animals were under isoflurane anesthesia. On days 7 and 14, 12 mice (n=6 per group) were sacrificed. The wounds were excised, embedded in OCT compound, and cryosectioned for histological evaluation.
Photographs were taken using the procedure described by Gooyit et al. (ACS Chem Biol. (2014) 9, 505-510) at a fixed distance above the wounds and calibrated using a ruler included in the photographic frame. Image J 1.48c software was used to calculate wound areas. The percentage of wound closure was calculated from the wound area on the specified day relative to that on day 0.
Fresh wound tissue was harvested and embedded in OCT compound. Subsequently, the tissue was cryosectioned for H&E staining (12-μm thickness) and for apoptosis assays and in-situ zymography (8-μm thickness). Re-epithelialization was assessed on a Nikon Eclipse 90i Fluorescent Microscope (Nikon Instruments Inc.) as described earlier (Tkalcevic et al., Toxicol. Pathol. (2009) 37, 183-192). Apoptosis was evaluated using Derma TACS™ Apoptosis detection kits (Trevigen, Inc.) according to the manufacturer's instructions. The protocol of in-situ zymography was adapted from known methods. Gelatinolytic activity was detected in unfixed cryostat sections using DQ-gelatin as a substrate. DQ-gelatin was prepared at a concentration of 20 μg/mL in Tris-buffered saline (TBS) buffer (50 mM TBS pH 7.6, 1 mM CaCl2). A general MMP inhibitor in 0.5 mM EDTA was prepared as a negative control. Cryostat sections were air-dried for 10 min and incubated in the substrate mixture in the presence and absence of EDTA for 1 hr at room temperature. After the incubation period, the slides were washed in PBS (three times, 5 min each), fixed with 4% paraformaldehyde in PBS for 10 min in the dark, washed again with PBS (three times, 5 min each), incubated in the dark for 5 min with 300 nM DAPI solution, and mounted with anti-quenching mounting medium. Fluorescence of FITC was detected with excitation at 460-500 nm and emission at 512-542 nm. DAPI was detected with excitation at 340-380 nm and emission at 425-∞ nm.
Data are expressed as mean±SD. Wound healing between the groups in the studies were analyzed for statistical significance using a paired Student t-test, where p<0.05 was considered statistically significant.

ADAM10 = ADAM10 (Homo sapiens (Human), UniProt O14672); experiment: Enzyme inhibition studies, ADAM10; format: biochemical; settings: at 100 μM; listed as ND-336, HCl salt
ADAM9 = ADAM9 (Homo sapiens (Human), UniProt Q13443); experiment: Enzyme inhibition studies, ADAM9; format: biochemical; settings: at 100 μM; listed as ND-336, HCl salt
ADAM9, sequence (Q13443 206-697): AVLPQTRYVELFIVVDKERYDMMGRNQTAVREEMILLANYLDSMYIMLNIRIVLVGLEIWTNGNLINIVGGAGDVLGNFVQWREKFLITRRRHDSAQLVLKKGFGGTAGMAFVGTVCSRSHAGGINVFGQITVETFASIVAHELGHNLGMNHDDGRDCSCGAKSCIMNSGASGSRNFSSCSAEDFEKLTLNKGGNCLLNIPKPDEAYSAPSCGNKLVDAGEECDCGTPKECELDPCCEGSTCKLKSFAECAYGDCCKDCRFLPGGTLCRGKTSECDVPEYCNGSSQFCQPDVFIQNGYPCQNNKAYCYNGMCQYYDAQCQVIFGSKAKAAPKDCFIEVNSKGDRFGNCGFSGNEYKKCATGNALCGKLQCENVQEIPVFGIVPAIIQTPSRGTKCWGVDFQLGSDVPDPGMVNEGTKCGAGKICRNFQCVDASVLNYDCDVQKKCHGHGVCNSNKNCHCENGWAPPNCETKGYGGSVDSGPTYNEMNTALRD

ADAM10, sequence (O14672 214-672): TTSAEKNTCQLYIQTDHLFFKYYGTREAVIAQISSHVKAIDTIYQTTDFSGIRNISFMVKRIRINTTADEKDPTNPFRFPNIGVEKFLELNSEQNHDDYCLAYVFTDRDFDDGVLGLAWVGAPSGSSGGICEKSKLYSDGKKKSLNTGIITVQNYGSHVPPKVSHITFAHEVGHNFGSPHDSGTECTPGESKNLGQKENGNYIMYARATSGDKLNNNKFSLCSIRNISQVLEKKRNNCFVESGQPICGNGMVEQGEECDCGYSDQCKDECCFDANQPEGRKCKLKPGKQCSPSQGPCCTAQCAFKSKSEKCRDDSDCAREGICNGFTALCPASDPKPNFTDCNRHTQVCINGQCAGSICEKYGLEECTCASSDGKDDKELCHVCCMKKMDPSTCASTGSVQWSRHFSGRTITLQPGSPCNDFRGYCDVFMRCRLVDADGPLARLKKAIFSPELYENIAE

NCc1ccc(Oc2ccc(S(=O)(=O)CC3CS3)cc2)cc1 (stereo not drawn) [Compound 5, (4-(4-((Thiiran-2-ylmethyl)sulfonyl)phenoxy)phenyl)methanamine HCl salt]
efficacy in mouse model of diabetic wound healing (diabetic (db/db) mice): significantly better efficacy than ND-322
Inhibition (ADAM10): Ki (ADAM-10) 14% inhibition at 100 μM
Inhibition (ADAM9): Ki (ADAM-9) 31% inhibition at 100 μM
